Measurements as given in patent US20230192878A1, “METHODS, THERAPIES AND USES FOR TREATING CANCER” (PFIZER INC., priority 2020, published 2023).

Assays:
[1] = system: advanced multiple myeloma; assay: First in human Phase 1 clinical study: patient response per IMWG; format: in vivo
Excerpt: This Example illustrates an ongoing Phase 1 open-label, multicenter clinical study of PF-06863135 (BCMAxCD3 bispecific) as monotherapy and in combination with sasanlimab, lenalidomide or pomalidomide, in adult patients with advanced multiple myeloma who have relapsed from or are refractory to standard therapy. The study has been registered on ClinicalTrials.gov with identifier NCT03269136 and was first posted August 2017. Study results for Part 1 of the trial and additional arms for the study are described in this Example.
Part 1 of the Study is the […] single agent dose escalation arm at the dose levels of 0.1, 0.3, 1, 3, 10, 30, and 50 μg/kg Q1W by intravenous (IV) administration, and at the dose levels of 80, 130, 215, 360, 600 and 1000 μg/kg Q1W by subcutaneous (SC) administration. Upon reaching maximum tolerated dose (MTD)/maximum administered dose (MAD), patients can be treated at a dose level selected from the foregoing dose levels described in this paragraph, and below the MTD/MAD fora Q2W administration, both IV and SC, to further support the recommended phase 2 dose (RP2D) decision. For the study, dose limiting toxicity observation period is set at 21 days for Q1W dosing and 28 days for Q2W dosing. The treatment cycle, aka cycle, for Q1W dosing would be 3 weeks, and for Q2W dosing would be four weeks.
Clinical Outcome of Part 1 of the Study. As of 15 Apr. 2020, a total of 23 patients were enrolled in Part 1 of the study and had been treated with PF-06863135 administered intravenously (IV) at 0.1 (N=2), 0.3 (N=3), 1 (N=2), 3 (N=3), 10 (N=2), 30 (N=5), and 50 (N=6) μg/kg. As of Aug. 21, 2020, a total of 30 patients were enrolled in Part 1 of the study and had been treated with PF-06863135 administered subcutaneously (SC) at 80 (N=6), 130 (N=4), 215 (N=4), 360 (N=4), 600 (N=6) and 1000 (N=6) μg/kg. Safety and efficacy data were available for in 23 IV and 30 SC treated patients per IMWG (International Myeloma Working Group) criteria.
Part 1.1 of the Study is an alternative maintenance dose escalation arm for single agent PF-06863135. If excessive toxicity occurs or the maximum tolerated dose (MTD)/maximum administered dose (MAD) is reached at a dose level that is earlier than desired in Part 1 of the study described above, a priming dose will be administered one week prior to the day 1 cycle 1 administration of the dose (maintenance dose) at this dose level and for all subsequent dose levels in the dose escalation that may be initiated for Part 1.1. The priming dosing will be at a lower dose level than the maintenance dose.

Raji-luc = assay: BCMAxCD3 bispecific mediated cell killing of lymphoma cells with human T cells, with or without GSI; format: cell-based; conditions: 60 hours, with or without 1 μM GSI, ± SD
Method: CD3^+ T cells from PBMCs (Stem Cell Technologies) were negatively selected using EasySep Human T cell enrichment kit (Stem Cell Technologies). 10,000 target lymphoma cells expressing luciferase (Raji-luc) were treated with 1 μM GSI. After 24 hours, cells were seeded with 50,000 CD3^+ pan T cells in a clear 96-well V-bottom plate. Cells were further treated with a range of BCMAxCD3 bispecific concentrations with or without 1 μM GSI. 60 hours after treatment, luciferase activity in treated cells was analyzed using NeoLite reagent kit (Perkin Elmer) and acquired on VictorX multimode plate reader (Perkin Elmer). Cell viability was calculated by dividing luciferase activity of treated cells over luciferase activity of untreated control (no BCMAxCD3 bispecific antibody added).

MM.1S = assay: Soluble BCMA (sBCMA) shedding after GSI (ELISA); format: cell-based, Human; parameters: unit not given here; conditions: Table 6 (sBCMA in supernatant, ELISA), 24 hours
Raji = assay: Cell surface BCMA expression after GSI, concentration series, lymphoma cells; format: cell-based; conditions: 24 hours, ± SD
Method: Lymphoma cells (Raji cell line) were seeded in a 96-well U bottom plate at 40,000 cells/well. Cells were incubated for 24 hours in the presence of GSI diluted in RPMI medium (0.1% DMSO). The following concentrations of the GSI were tested: 1000 nM, 500 nM, 100 nM, 50 nM, 25 nM, 10 nM, 5 nM, 2.5 nM, 1 nM, 0.1 nM, 0.01 nM. 24 hours later cells were collected and washed with PBS+2% FBS, followed by staining with ZombieNIR Viability Dye (Biolegend) at 1 in 500 dilution in PBS at room temperature for 20 minutes. Next, cells were washed with PBS+2% FBS and stained with anti-BCMA PE-labelled antibody (Biolegend) diluted in PBS+2% FBS for 30 minutes at 4° C. Cells were acquired on BD Flow Cytometer and analyzed using FlowJo flow cytometry analysis software. Dead cells were removed from the analysis by gating on ZombieNIR negative population. BCMA MFI was plotted against GSI concentration to establish EC50.

[2] = 600 μg/kg priming, 1000 μg/kg Q1W SC, N = 7
[3] = 600 μg/kg priming, 1000 μg/kg Q2W SC, N = 13

PF-06863135: heterodimeric humanized full-length bispecific antibody with one BCMA binding arm and one CD3 binding arm
Patients who achieved a complete response ([1]; 50 μg/kg IV): 1 patient | Patient Response: PR (patients) ([1]; 215 μg/kg SC, N = 4): 1 | Patient Response: SD (patients) ([1]; 215 μg/kg SC, N = 4): 1 | Patient Response: sCR (patients) ([1]; 215 μg/kg SC, N = 4): 2 | Patient Response: PD (patients) ([1]; 360 μg/kg SC, N = 4): 1 | Patient Response: VGPR (patients) ([1]; 360 μg/kg SC, N = 4): 2 | Patient Response: sCR (patients) ([1]; 360 μg/kg SC, N = 4): 1 | Patient Response: PD (patients) ([1]; 600 μg/kg SC, N = 6): 1 | Patient Response: SD (patients) ([1]; 600 μg/kg SC, N = 6): 1 | Patient Response: VGPR (patients) ([1]; 600 μg/kg SC, N = 6): 2 | Patient Response: sCR (patients) ([1]; 600 μg/kg SC, N = 6): 2 | Patient Response: CR (patients) [1, 2]: 2 | Patient Response: PR (patients) [1, 2]: 1 | Patient Response: VGPR (patients) [1, 2]: 1 | Patient Response: PD (patients) [1, 3]: 3 | Patient Response: PR (patients) [1, 3]: 3 | Patient Response: SD (patients) [1, 3]: 1 | Patient Response: VGPR (patients) [1, 3]: 4 | Patient Response: CR (patients) ([1]; 1000 μg/kg SC, N = 6): 1 | Patient Response: PD (patients) ([1]; 1000 μg/kg SC, N = 6): 1 | Patient Response: PR (patients) ([1]; 1000 μg/kg SC, N = 6): 1 | Patient Response: VGPR (patients) ([1]; 1000 μg/kg SC, N = 6): 3 | Subjects who achieved best response of stable disease ([1]; IV cohorts (0.3-50 μg/kg)): Ten | Patients who achieved a minimal response ([1]; IV cohorts, at 3 μg/kg and 50 μg/kg IV): 2 patients | Clinical efficacy ([1]; highest dose levels of 600 and 1000 μg/kg SC): clinical efficacy was seen in most patients | Raji Cell Viability (% control) (Raji-luc; BCMAxCD3 0.00064 nM): 94 ± 3.7 % control | Raji Cell Viability (% control) (Raji-luc; BCMAxCD3 0.0032 nM): 107 ± 4.5 % control | Raji Cell Viability (% control) (Raji-luc; BCMAxCD3 0.016 nM): 105.8 ± 10.2 % control | Raji Cell Viability (% control) (Raji-luc; BCMAxCD3 0.08 nM): 89.3 ± 5.7 % control | Raji Cell Viability (% control) (Raji-luc; BCMAxCD3 0.4 nM): 88.1 ± 18.4 % control | Raji Cell Viability (% control) (Raji-luc; BCMAxCD3 2 nM): 71 ± 9.7 % control | Raji Cell Viability (% control) (Raji-luc; BCMAxCD3 10 nM): 82.1 ± 9.7 % control | Raji Cell Viability (% control) (Raji-luc; BCMAxCD3 50 nM): 80 ± 13.2 % control

CCC[C@H](N[C@H]1CCc2cc(F)cc(F)c2C1)C(=O)Nc1cn(C(C)(C)CNCC(C)(C)C)cn1 [GSI, nirogacestat]
BCMA (-PE) MFI (MM.1S; GSI 0.01 nM): 3794.2 | BCMA (-PE) MFI (MM.1S; GSI 0.1 nM): 5797.5 | BCMA (-PE) MFI (MM.1S; GSI 1 nM): 5143.1 | BCMA (-PE) MFI (MM.1S; GSI 2.5 nM): 3988.3 | BCMA (-PE) MFI (MM.1S; GSI 5 nM): 2453.6 | BCMA (-PE) MFI (MM.1S; GSI 10 nM): 1661.5 | BCMA (-PE) MFI (MM.1S; GSI 25 nM): 630.5 | BCMA (-PE) MFI (MM.1S; GSI 50 nM): 279.9 | BCMA (-PE) MFI (MM.1S; GSI 100 nM): 21.3 | BCMA (-PE) MFI (MM.1S; GSI 500 nM): 151.8 | BCMA (-PE) MFI (MM.1S; GSI 1000 nM): 350 | BCMA MFI (Raji; GSI 0.01 nM): 142.5 ± 0.8 | BCMA MFI (Raji; GSI 0.10 nM): 147.5 ± 20.6 | BCMA MFI (Raji; GSI 1.00 nM): 398 ± 34 | BCMA MFI (Raji; GSI 2.50 nM): 469 ± 31.2 | BCMA MFI (Raji; GSI 5.00 nM): 484 ± 43.9 | BCMA MFI (Raji; GSI 10.00 nM): 515.5 ± 47.4 | BCMA MFI (Raji; GSI 25.00 nM): 532 ± 42.5 | BCMA MFI (Raji; GSI 50.00 nM): 535 ± 65.1 | BCMA MFI (Raji; GSI 100.00 nM): 498.5 ± 20.6 | BCMA MFI (Raji; GSI 500.00 nM): 568.5 ± 50.3 | BCMA MFI (Raji; GSI 1000.00 nM): 534.5 ± 67.2
